Laboratory results as given in patent US9113629B2, “4-amino-6-(4-substituted-phenyl)-picolinates and 6-amino-2-(4-substituted-phenyl)-pyrimidine-4-carboxylates and their use as herbicides” (DOW AGROSCIENCES LLC, priority 2013, dated 2015).
Like-named read-outs stand apart in the source and are kept apart here.

Legend:
[1] = system: Key Grass and Sedge Weeds as well as Grass Crops; test: Post-emergent Test II herbicidal activity (Table 6); assay type: in vivo; conditions: post-emergence, 336 h; for pest or weed control at 70 g/ha: application rate 70 g ai/ha; for pest or weed control at 140 g/ha: application rate 140 g ai/ha
Procedure, shortened: (§1)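 Injury was rated visually 14 d after treatment on a 0–100% scale against untreated controls. Test compounds, formulated with crop oil concentrate and surfactant and serially diluted down to 1/16× of the top rate, were applied by track sprayer at 187 L/ha onto first- to second-true-leaf seedlings.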

[2] = system: Key Broadleaf Weed and Crop Species; test: Post-emergent Test II herbicidal activity (Table 5); assay type: in vivo; conditions: post-emergence, 336 h, post-emergent, 14 days after application; for pest or weed control at 70 g/ha: 70 g ai/ha; for pest or weed control at 140 g/ha: 140 g ai/ha
Procedure, shortened: as §1

[3] = Triticum aestivum, TRZSS (wheat), read-out: Visual Growth Reduction (%) 14 Days After Application, TRZSS
[4] = CYPES: yellow nutsedge (Cyperus esculentus), read-out: Visual Growth Reduction (%) 14 Days After Application, CYPES
[5] = ECHCG: barnyardgrass (Echinochloa crus-galli), read-out: Visual Growth Reduction (%) 14 Days After Application, ECHCG
[6] = ORYSA: rice (Oryza sativa), read-out: Visual Growth Reduction (%) 14 Days After Application, ORYSA
[7] = SETFA: giant foxtail (Setaria faberi), read-out: Visual Growth Reduction (%) 14 Days After Application, SETFA
[8] = SORVU: grain sorghum (Sorghum vulgare), read-out: Visual Growth Reduction (%) 14 Days After Application, SORVU
[9] = ZEAMX: maize, corn (Zea mays), read-out: Visual Growth Reduction (%) 14 Days After Application, ZEAMX
[10] = ABUTH: velvetleaf (Abutilon theophrasti), read-out: Visual Growth Reduction (%) 14 Days After Application ABUTH
[11] = AMARE: redroot pigweed (Amaranthus retroflexus), read-out: Visual Growth Reduction (%) 14 Days After Application AMARE
[12] = BRSNN: oilseed-rape, canola (Brassica napus), read-out: Visual Growth Reduction (%) 14 Days After Application BRSNN
[13] = CHEAL: lambsquarters (Chenopodium album), read-out: Visual Growth Reduction (%) 14 Days After Application CHEAL
[14] = EPHHL: wild poinsettia (Euphorbia heterophylla), read-out: Visual Growth Reduction (%) 14 Days After Application EPHHL
[15] = HELAN: sunflower (Helianthus annuus), read-out: Visual Growth Reduction (%) 14 Days After Application HELAN
[16] = VIOTR: wild pansy (Viola tricolor), read-out: Visual Growth Reduction (%) 14 Days After Application VIOTR

- melting point: 153 to 154 °C
SMILES: COC(=O)c1nc(-c2cc(F)c(Br)cc2F)c(F)c(N)c1Cl [Compound 51, methyl 4-amino-6-(4-bromo-2,5-difluorophenyl)-3-chloro-5-fluoropicolinate]
- pest or weed control at 70 g/ha [1, 3]: 60 to 74%
- pest or weed control at 140 g/ha [1, 3]: 85 to 94%
- pest or weed control at 70 g/ha [1, 4]: 95 to 100%
- pest or weed control at 140 g/ha [1, 4]: 95 to 100%
- pest or weed control at 70 g/ha ([1]; DIGSA: crabgrass (Digitaria sanguinalis), read-out: Visual Growth Reduction (%) 14 Days After Application, DIGSA): 95 to 100%
- pest or weed control at 70 g/ha [1, 5]: 95 to 100%
- pest or weed control at 140 g/ha [1, 5]: 95 to 100%
- pest or weed control at 70 g/ha [1, 6]: 0 to 29%
- pest or weed control at 140 g/ha [1, 6]: 0 to 29%
- pest or weed control at 70 g/ha [1, 7]: 95 to 100%
- pest or weed control at 140 g/ha [1, 7]: 95 to 100%
- pest or weed control at 70 g/ha [1, 8]: 95 to 100%
- pest or weed control at 140 g/ha [1, 8]: 95 to 100%
- pest or weed control at 70 g/ha [1, 9]: 85 to 94%
- pest or weed control at 140 g/ha [1, 9]: 85 to 94%
- pest or weed control at 70 g/ha [2, 10]: 95 to 100%
- pest or weed control at 140 g/ha [2, 10]: 95 to 100%
- pest or weed control at 70 g/ha [2, 11]: 95 to 100%
- pest or weed control at 140 g/ha [2, 11]: 95 to 100%
- pest or weed control at 70 g/ha [2, 12]: 95 to 100%
- pest or weed control at 140 g/ha [2, 12]: 95 to 100%
- pest or weed control at 70 g/ha [2, 13]: 95 to 100%
- pest or weed control at 140 g/ha [2, 13]: 95 to 100%
- pest or weed control at 70 g/ha [2, 14]: 95 to 100%
- pest or weed control at 140 g/ha [2, 14]: 95 to 100%
- pest or weed control at 70 g/ha [2, 15]: 95 to 100%
- pest or weed control at 140 g/ha [2, 15]: 95 to 100%
- pest or weed control at 70 g/ha [2, 16]: 95 to 100%
- pest or weed control at 140 g/ha [2, 16]: 95 to 100%
